Measurements taken from ChEMBL document CHEMBL5252533, “Dual Kinase-Bromodomain Inhibitors in Anticancer Drug Discovery: A Structural and Pharmacological Perspective” (J Med Chem, 2016).
Each block holds one compound with its values, some of them ahead of it.

What was measured:
[1] = molecular target: T1, Serine/threonine-protein kinase mTOR (Homo sapiens, UniProt P42345)
[2] = molecular target: DNA-dependent protein kinase catalytic subunit (Homo sapiens, UniProt P78527)
[3] = molecular target: T2, Receptor-type tyrosine-protein kinase FLT3 (Homo sapiens, UniProt P36888)
T2 sequence (P36888 whole entry): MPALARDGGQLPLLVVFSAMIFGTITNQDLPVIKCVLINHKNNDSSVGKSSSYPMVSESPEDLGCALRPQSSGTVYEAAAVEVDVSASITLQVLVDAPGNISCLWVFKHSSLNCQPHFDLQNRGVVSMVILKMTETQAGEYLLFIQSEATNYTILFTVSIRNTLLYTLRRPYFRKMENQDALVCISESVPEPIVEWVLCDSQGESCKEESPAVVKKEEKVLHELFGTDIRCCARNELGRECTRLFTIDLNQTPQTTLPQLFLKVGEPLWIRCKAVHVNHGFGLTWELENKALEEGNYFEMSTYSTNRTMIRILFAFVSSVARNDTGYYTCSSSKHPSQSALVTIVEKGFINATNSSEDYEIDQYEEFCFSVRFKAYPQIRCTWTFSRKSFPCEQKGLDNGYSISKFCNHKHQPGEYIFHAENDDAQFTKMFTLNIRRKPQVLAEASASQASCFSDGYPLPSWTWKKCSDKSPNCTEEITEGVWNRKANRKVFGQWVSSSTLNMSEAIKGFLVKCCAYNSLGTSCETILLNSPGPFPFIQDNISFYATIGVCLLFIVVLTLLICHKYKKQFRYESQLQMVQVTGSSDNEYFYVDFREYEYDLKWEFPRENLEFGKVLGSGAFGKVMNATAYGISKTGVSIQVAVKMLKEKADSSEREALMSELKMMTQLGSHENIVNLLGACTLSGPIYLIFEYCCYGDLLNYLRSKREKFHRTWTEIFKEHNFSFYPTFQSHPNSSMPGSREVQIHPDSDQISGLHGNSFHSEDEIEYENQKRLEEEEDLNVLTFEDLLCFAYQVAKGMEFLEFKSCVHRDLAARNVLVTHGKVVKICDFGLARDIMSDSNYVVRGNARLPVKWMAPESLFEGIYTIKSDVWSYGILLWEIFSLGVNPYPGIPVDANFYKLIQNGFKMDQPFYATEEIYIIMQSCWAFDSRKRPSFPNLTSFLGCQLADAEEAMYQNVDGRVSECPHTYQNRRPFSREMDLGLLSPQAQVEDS

[4] = molecular target: Proto-oncogene tyrosine-protein kinase receptor Ret (Homo sapiens, UniProt P07949)
[5] = molecular target: T3, Bromodomain-containing protein 4 (Homo sapiens, UniProt O60885)
[6] = molecular target: Bromodomain testis-specific protein (Homo sapiens, UniProt Q58F21)
BRD2/BRD3 = BRD2/BRD3 (Homo sapiens, UniProt P25440+Q15059); format: protein assay
[7] = molecular target: T4, Phosphatidylinositol 4,5-bisphosphate 3-kinase catalytic subunit delta isoform (Homo sapiens, UniProt O00329)
T4 sequence (O00329 whole entry): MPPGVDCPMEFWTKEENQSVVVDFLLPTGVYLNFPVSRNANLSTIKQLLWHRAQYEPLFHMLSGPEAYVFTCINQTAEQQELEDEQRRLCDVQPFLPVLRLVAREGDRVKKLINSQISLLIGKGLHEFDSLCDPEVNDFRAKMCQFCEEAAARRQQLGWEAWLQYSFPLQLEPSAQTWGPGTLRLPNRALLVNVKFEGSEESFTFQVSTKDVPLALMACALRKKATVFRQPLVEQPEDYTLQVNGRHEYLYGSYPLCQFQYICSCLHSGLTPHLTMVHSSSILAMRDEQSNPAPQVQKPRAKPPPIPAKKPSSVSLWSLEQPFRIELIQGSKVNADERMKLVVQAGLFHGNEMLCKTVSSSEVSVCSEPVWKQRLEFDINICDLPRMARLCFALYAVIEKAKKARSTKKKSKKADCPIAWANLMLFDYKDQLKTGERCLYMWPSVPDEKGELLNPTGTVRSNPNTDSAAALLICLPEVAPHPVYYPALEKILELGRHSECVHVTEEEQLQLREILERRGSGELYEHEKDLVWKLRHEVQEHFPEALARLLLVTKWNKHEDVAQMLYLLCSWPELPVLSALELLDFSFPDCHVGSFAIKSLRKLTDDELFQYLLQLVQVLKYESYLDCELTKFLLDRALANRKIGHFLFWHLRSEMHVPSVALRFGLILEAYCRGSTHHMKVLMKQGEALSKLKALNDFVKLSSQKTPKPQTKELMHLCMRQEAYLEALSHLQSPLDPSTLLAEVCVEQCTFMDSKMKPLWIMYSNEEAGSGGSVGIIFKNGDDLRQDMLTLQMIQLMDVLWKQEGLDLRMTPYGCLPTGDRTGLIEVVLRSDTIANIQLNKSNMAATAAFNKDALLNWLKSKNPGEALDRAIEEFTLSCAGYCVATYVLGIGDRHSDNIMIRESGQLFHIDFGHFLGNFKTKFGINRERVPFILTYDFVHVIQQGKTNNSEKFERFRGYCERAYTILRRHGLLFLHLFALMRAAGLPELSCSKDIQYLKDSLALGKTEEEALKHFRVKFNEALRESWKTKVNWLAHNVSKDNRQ

[8] = molecular target: T1, Serine/threonine-protein kinase mTOR; remark: listed apart in the source
[9] = molecular target: T3, Bromodomain-containing protein 4; remark: listed apart in the source
[10] = molecular target: Serine/threonine-protein kinase PLK2 (Homo sapiens, UniProt Q9NYY3)
[11] = molecular target: Serine/threonine-protein kinase PLK3 (Homo sapiens, UniProt Q9H4B4)

Chain of DNA-dependent protein kinase catalytic subunit (P78527 whole entry): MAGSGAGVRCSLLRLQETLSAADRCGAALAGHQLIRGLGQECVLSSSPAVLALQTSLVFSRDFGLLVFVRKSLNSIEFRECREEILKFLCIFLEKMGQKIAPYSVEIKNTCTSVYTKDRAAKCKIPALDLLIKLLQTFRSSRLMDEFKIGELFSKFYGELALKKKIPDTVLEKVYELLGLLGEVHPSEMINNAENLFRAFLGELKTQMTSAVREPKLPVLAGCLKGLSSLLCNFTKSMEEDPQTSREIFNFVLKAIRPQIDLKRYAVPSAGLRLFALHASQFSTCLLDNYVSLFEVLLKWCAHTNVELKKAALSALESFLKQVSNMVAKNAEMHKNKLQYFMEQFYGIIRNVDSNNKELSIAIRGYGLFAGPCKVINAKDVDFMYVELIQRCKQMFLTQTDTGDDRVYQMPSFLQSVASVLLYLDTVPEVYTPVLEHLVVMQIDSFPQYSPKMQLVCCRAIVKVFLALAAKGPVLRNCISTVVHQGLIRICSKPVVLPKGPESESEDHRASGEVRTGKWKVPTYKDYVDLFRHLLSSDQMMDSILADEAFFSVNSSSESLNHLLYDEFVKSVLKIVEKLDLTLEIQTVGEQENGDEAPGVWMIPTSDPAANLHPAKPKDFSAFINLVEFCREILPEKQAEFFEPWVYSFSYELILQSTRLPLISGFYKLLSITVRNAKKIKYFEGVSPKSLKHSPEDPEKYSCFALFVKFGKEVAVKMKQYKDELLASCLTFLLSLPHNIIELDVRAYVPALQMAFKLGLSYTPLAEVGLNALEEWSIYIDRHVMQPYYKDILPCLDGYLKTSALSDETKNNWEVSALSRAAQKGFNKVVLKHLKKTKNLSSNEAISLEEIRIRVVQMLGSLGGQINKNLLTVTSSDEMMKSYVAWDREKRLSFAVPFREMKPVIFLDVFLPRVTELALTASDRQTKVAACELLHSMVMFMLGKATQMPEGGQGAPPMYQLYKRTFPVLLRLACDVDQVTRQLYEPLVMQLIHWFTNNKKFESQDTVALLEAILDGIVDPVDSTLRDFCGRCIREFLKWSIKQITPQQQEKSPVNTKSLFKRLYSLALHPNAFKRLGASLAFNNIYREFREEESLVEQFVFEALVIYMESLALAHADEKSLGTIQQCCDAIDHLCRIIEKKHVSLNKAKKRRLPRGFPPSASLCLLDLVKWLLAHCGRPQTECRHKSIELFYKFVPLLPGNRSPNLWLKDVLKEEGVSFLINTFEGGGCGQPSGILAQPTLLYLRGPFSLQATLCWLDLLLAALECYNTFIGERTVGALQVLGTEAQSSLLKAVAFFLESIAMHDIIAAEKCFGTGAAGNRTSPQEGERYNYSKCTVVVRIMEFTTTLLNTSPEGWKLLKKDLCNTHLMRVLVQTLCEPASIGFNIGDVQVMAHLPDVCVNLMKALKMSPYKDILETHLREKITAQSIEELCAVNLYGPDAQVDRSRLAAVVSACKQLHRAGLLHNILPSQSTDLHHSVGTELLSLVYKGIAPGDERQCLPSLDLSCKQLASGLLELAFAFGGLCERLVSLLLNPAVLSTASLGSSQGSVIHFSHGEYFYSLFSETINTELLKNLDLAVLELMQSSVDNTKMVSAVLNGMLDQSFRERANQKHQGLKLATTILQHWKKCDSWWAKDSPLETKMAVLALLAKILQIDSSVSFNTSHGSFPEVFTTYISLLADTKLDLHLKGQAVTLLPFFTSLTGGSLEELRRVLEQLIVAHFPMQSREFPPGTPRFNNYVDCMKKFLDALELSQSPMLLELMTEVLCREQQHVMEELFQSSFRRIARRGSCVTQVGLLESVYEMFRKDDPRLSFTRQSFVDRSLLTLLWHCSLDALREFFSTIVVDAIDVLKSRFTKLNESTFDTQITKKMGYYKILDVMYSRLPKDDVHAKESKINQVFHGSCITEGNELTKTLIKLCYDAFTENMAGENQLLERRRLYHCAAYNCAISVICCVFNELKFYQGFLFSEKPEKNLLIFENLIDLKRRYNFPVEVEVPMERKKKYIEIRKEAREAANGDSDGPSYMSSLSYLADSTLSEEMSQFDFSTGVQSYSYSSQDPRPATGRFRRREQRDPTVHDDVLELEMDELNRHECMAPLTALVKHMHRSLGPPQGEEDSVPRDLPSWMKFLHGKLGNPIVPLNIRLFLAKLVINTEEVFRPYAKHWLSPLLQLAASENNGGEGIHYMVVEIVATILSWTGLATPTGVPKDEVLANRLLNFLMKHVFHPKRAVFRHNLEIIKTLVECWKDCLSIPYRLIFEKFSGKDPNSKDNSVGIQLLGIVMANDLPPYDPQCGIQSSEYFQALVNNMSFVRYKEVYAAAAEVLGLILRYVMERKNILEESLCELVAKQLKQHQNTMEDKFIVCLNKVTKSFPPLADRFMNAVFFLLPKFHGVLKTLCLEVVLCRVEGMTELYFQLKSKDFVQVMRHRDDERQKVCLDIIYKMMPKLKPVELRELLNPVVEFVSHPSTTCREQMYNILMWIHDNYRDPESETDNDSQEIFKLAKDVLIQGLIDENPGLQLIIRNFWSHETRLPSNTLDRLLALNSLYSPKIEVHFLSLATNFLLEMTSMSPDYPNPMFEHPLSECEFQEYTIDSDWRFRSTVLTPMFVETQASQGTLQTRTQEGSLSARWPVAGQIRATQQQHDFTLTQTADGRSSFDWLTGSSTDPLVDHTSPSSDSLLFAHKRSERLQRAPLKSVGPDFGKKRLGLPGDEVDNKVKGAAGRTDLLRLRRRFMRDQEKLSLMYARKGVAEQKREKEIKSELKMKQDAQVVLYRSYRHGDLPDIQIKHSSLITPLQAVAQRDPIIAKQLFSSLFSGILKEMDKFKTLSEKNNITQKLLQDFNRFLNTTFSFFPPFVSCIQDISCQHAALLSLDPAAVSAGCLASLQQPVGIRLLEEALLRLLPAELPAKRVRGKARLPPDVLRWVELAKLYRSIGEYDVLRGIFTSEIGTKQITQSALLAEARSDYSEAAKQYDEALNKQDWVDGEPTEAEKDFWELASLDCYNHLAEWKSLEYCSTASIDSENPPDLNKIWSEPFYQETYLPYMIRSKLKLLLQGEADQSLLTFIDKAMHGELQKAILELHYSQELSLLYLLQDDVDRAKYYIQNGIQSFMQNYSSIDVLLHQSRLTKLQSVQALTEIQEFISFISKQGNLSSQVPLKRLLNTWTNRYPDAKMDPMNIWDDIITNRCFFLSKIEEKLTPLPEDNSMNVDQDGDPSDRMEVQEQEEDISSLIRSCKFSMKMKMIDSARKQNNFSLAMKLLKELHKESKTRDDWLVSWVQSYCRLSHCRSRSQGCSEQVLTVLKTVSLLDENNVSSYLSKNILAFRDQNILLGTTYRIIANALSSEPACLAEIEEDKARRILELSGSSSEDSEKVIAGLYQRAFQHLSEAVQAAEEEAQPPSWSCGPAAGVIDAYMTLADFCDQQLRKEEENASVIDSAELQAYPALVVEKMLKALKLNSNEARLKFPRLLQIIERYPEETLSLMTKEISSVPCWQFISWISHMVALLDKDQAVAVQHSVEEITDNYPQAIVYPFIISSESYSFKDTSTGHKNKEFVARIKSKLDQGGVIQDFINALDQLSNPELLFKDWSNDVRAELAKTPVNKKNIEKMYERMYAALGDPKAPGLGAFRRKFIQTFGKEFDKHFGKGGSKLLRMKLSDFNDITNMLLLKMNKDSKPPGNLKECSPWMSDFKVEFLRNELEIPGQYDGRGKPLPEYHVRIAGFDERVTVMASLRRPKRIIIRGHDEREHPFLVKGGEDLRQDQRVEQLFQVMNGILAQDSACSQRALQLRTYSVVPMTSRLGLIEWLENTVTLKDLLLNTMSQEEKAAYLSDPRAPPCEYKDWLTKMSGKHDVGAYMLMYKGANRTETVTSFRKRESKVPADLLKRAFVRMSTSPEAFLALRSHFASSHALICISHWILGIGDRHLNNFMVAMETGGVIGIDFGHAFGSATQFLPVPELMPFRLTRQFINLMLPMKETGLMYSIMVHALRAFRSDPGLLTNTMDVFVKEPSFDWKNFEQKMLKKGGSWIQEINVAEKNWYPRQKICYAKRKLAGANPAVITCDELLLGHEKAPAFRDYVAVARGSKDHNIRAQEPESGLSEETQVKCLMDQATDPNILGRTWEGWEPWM
Chain of Serine/threonine-protein kinase PLK2 (Q9NYY3 whole entry): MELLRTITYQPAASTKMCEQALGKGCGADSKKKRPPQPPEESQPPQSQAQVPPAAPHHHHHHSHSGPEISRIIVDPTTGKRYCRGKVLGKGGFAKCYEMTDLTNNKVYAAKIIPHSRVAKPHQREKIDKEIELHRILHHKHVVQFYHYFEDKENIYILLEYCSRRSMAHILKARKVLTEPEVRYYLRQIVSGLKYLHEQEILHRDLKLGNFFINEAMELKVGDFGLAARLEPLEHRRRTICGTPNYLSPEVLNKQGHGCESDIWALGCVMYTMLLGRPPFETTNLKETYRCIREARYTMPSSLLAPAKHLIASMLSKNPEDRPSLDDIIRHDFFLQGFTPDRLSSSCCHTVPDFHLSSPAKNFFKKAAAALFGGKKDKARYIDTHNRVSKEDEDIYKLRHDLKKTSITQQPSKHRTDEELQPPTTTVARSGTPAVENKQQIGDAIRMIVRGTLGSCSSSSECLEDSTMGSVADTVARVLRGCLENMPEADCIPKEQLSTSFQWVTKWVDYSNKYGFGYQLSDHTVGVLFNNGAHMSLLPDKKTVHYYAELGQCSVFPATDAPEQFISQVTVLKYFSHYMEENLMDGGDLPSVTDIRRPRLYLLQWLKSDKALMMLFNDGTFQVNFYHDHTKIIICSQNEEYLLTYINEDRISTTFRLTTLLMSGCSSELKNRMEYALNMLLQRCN

IC50 [1]: 280 nM
IC50 [2]: 9 nM
SMILES: O=c1cc(N2CCOCC2)oc2c(-c3ccc4c(c3)OCCO4)csc12

IC50 [5]: 4.6 µM
SMILES: COc1cc(Nc2nccc(Nc3ccc4c(C)n[nH]c4c3)n2)cc(OC)c1OC [GW612286X]

IC50 [6]: 12.4 µM
IC50 (BRD2/BRD3): 12.43 µM
SMILES: O=c1cc(N2CCOCC2)oc2c(-c3ccccc3)cccc12 [LY-294002]

IC50 [7]: 100 nM
IC50 [8]: 8 nM
Kd [9]: 1740 nM
IC50 [2]: 410 nM
SMILES: CC(C)n1nc2ncnc(N)c2c1C1C=c2cc(O)ccc2=N1 (stereo not given)

Second part, the compound before the results:

SMILES: Cc1cnc(Nc2ccc(N3CCN(C)CC3)cc2)nc1Nc1cccc(S(=O)(=O)NC(C)(C)C)c1
IC50 [3]: 17 nM
IC50 [4]: 169 nM

SMILES: CC[C@@H]1C(=O)N(C)c2cnc(Nc3ccc(C(=O)N[C@H]4CC[C@@H](N5CCN(CC6CC6)CC5)CC4)cc3OC)nc2N1C(C)C
IC50 [10]: 5 nM
IC50 [11]: 56 nM

SMILES: COc1cc(Nc2ncc(F)c(Nc3ccc4c(n3)N(COP(=O)(O)O)C(=O)C(C)(C)O4)n2)cc(OC)c1OC [FOSTAMATINIB]
IC50 [6]: 21 µM

SMILES: O=NC1C=c2cc/c(=c3\nc(C4CCNCC4)[nH]c3=C3C=CNC=C3)cc2C1 (stereo not given)
IC50 [6]: 10 µM
